{
  "source": "patent US20240336889A1",
  "about": "“NOMADIC BACTERIA AND USES THEREOF” (The State of Israel, Ministry of Agriculture & Rural …, priority 2021, published 2024)",
  "key": {"C. albicans [1]": {"system": "C. albicans", "experiment": "Yeast-hyphae switching assay", "format": "cell-based", "conditions": "liquid RPMI media", "description": "Yeast-hyphae switching assay: Yeast-hyphae (Y-H) switching assays were conducted in liquid RPMI-1640 medium as previously described. Briefly, overnights cultures of C. albicans (grown in PDB) were diluted to a 1:100 in RPMI-1640 and treated with or without UP/CSP ([…]) or ketones (0.005%-0.1%). The cultures were then incubated at 37° C. with shaking (150 rpm). Following incubation, 5 μL of the cultures were transferred to the microscopic slide and imaged under Nikon fluorescent microscope (Nikon Eclipse Ti2, Japan)."}, "C. albicans [2]": {"system": "C. albicans", "experiment": "C. albicans biofilm inhibition assay (crystal violet)", "format": "cell-based", "conditions": "for effect of pure ketone on C. albicans biofilms: dose not stated", "description": "(§1) Biofilm inhibition assay: Biofilm inhibition assays were conducted in 96-well polystyrene microtiter plates (Tarsons Products Pvt. Ltd. India) as previously described. Briefly, bacterial or yeast cells were cultured overnight in LB or PDB and re-inoculated in fresh LB or PDB (1:100 dilution) (with 0.05% glucose) with and without supplementation of postbiotics (5% or 10% v/v) at 37° C. After 24 h of incubation, biofilms were stained with crystal violet (0.1%) for 20 min, washed repeatedly, and the residual biofilm cells (attached to the polystyrene surfaces) were dissolved in 95% ethanol. The planktonic growth was measured at 600 nm, while the biofilms were measured at 575 nm using a Biowave CO8000 cell density meter. For microscopic imaging of biofilms attached to the polystyrene surfaces, the wells were stained with SYTO® 9 dye, and imaged under Nikon fluorescent microscope (Nikon Eclipse Ti2, Japan) using a GFP emission filter."}, "C. albicans [3]": {"system": "C. albicans", "experiment": "C. elegans infected with C. albicans, treated with 2-undecanone", "format": "in vivo", "conditions": "2-undecanone 0.01%, 7 days; infected untreated 20% survival", "description": "C. elegans co-infection assays: Wild-type C. elegans were maintained on nematode growth medium (NGM) with E. coli OP50 as the feed, and synchronization was performed as described previously^35. Briefly, C. elegans were collected by aspiration and bleached with 2% sodium hypochlorite and 0.5 N sodium hydroxide to get the eggs. Eggs were transferred to 48-well microliter plates and were incubated for 24 h at 22° C. for hatching. The hatched juveniles were transferred to new E. coli OP50 plates and incubated for 5-7 days to obtain adult nematode. Adults were subsequently used for toxicity, and bacterial or C. albicans colonization assays. For C. albicans infection of C. elegans, the adult nematodes, previously fed on E. coli OP50, were transferred to a C. albicans lawn on NGM agar plate for 4 h. After 4 h, the nematodes were collected in M9 buffer, pipetted into a 96-well, and survival monitored for 7 days. […] The live and dead nematodes were counted under bright-field, and DAPi filter and the nematode survival rates were estimated and plotted. The images of C. elegans were acquired using a Nikon fluorescent microscope (Nikon Eclipse Ti2, Japan).\nThe present inventors further tested whether 2-undecanone could suppress C. albicans pathogenicity in a C. elegans model by infecting C. elegans with C. albicans."}, "C. elegans": {"system": "C. elegans", "experiment": "C. elegans toxicity assay", "format": "in vivo", "conditions": "2-undecanone 0.1%, 7 days", "description": "C. elegans toxicity assay: C. elegans wild-type strains were maintained on nematode growth medium (NGM) with E. coli OP50 as the feed. […] The control and treatment groups (each consisting of approximately 30 nematodes per well) were suspended in liquid M9 buffer and monitored for 7 days. The live or dead nematodes were counted using the Nikon fluorescent microscope (Nikon Eclipse Ti2, Japan) using a DIC and DAPi (blue LED light) filters and the survival percentage was calculated."}, "C. albicans [4]": {"system": "C. albicans", "experiment": "C. albicans growth profile", "format": "cell-based", "description": "as §1, with “Briefly, bacterial or yeast cells were cultured overnight in LB or PDB and re-inoculated in fresh LB or PDB (1:100 dilution) (with 0.05% glucose) with and without supplementation of postbiotics (5% or 10% v/v) at 37° C.” left out"}, "[5]": {"system": "unstressed L. plantarum 3297 cells from conic colonies", "experiment": "Cold-shock colony filtrate assay: consolidated circular bundle formation in unstressed conic colony cells", "format": "cell-based", "conditions": "cells pre-incubated with lithium chloride (5M) before CSCF", "description": "An assay was developed to see if the cold-stressed conic colony (−17° C. for 1 h) extracts could potentiate consolidated bundling in unstressed conic colony cells. Briefly, 1 mL of suspension from harvested cold-stressed (treated) and unstressed (control) conic colonies (approximately 5-6 colonies) were resuspended in PBS, vortexed, and sonicated. The extracts were filtered using a 0.2 μm membrane filter to remove the cells. The filtrate was named cold-shock colony filtrates (CSCF). Simultaneously, 1 mL cells from the unstressed colonies were vortexed, sonicated, and pelleted. To these pelleted unstressed cells, 1 mL of CSCF was added, aspirated, and incubated at 37° C. for 3 h. At the same time, colony filtrates (CF) from the unstressed colony and heat-treated (60° C. for 30 min) CSCF were prepared and tested. Following incubation, the aggregation pattern was scrutinized under Nikon fluorescent microscope (Nikon Eclipse Ti2, Japan). As a negative control, one vial of unstressed cells was incubated with 5M lithium chloride ([…]) for 30 min before adding 1 mL of CSCF. […] abolishes the S-layer protein and stalls the ability of the cells to aggregate to form bundles."}},
  "data": [
    {"smiles": "CCCCCCCC(C)=O", "note": "[2-nonanone]", "values": [
      {"measurement": "effect of pure ketone on C. albicans hyphae (Y-H transitions)", "setting": "C. albicans [1]", "value": "did not show any notable effect"},
      {"measurement": "effect of pure ketone on C. albicans biofilms", "setting": "C. albicans [2]", "value": "did not show any notable effect"}
    ]},
    {"smiles": "CCCCCCCCCC(C)=O", "note": "[2-undecanone]", "values": [
      {"measurement": "survivability of C. albicans infected C. elegans", "setting": "C. albicans [3]", "value": 50, "unit": "%"},
      {"measurement": "mortality of C. elegans", "setting": "C. elegans", "value": "did not induce any mortality"},
      {"measurement": "effect of pure ketone on C. albicans hyphae (Y-H transitions)", "setting": "C. albicans [1]", "value": "effectively controlled Y-H transitions"},
      {"measurement": "C. albicans biofilm formation", "setting": "C. albicans [2]; 0.005%, PDB, polystyrene", "value": "successful in preventing the biofilm formation"},
      {"measurement": "C. albicans planktonic growth", "setting": "C. albicans [4]; 0.005%", "value": "without compromising the planktonic growth"},
      {"measurement": "C. albicans growth profiles", "setting": "C. albicans [4]; higher dosage (0.05 or 0.01%), RPMI media", "value": "substantial decline in the growth profiles"}
    ]},
    {"smiles": "CCCCCC(C)=O", "note": "[2-heptanone]", "values": [
      {"measurement": "effect of pure ketone on C. albicans hyphae (Y-H transitions)", "setting": "C. albicans [1]", "value": "did not show any notable effect"},
      {"measurement": "effect of pure ketone on C. albicans biofilms", "setting": "C. albicans [2]", "value": "did not show any notable effect"}
    ]},
    {"smiles": "[Cl-].[Li+]", "note": "[lithium chloride]", "values": [
      {"measurement": "circular bundle formation induced by CSCF", "setting": "[5]", "value": "prevented"}
    ]}
  ]
}
